Measurements taken from ChEMBL document CHEMBL1131309, “Isoindol-1-one analogues of 4-(2'-methoxyphenyl)-1-[2'-[N-(2"-pyridyl)-p-iodobenzamido]ethyl]pipera zine (p-MPPI) as 5-HT1A receptor ligands” (J Med Chem, 1998).
Blank lines part the entries; values can stand above or below the molecule they belong to.

Key:
[1] = molecular target: T1, 5-hydroxytryptamine receptor 1A (Rattus norvegicus, UniProt P19327)
T1 sequence (P19327 whole entry): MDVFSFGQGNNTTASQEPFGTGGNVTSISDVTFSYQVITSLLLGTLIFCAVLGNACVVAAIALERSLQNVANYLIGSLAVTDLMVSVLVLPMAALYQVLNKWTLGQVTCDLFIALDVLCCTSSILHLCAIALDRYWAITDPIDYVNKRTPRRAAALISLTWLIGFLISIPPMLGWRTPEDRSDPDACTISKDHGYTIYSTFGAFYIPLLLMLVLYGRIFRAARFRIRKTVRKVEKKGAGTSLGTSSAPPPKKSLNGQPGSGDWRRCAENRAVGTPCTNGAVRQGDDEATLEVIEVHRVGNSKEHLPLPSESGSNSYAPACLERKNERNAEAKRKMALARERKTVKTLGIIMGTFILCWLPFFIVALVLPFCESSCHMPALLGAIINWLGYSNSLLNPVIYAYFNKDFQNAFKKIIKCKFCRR
Description: (§1) In vitro binding affinity for 5-hydroxytryptamine 1A receptor in rat hippocampal membranes by [125I]-labeled agonist displacement.

Rattus norvegicus [2] = assay: Biodistribution was measured in blood of rat by injecting the radiolabeled compound intravenously and the value measured after 2 min; type: ADME, organism-based; conditions: in vivo, iv
Rattus norvegicus [3] = assay: Biodistribution was measured in rat muscle by injecting the radiolabeled compound intravenously and the value measured after 30 min; type: ADME, organism-based, Muscle tissue; conditions: in vivo, iv, 0.5 h
Rattus norvegicus [4] = assay: Biodistribution was measured in rat muscle by injecting the radiolabeled compound intravenously and the value measured after 60 min; type: ADME, organism-based, Muscle tissue; conditions: in vivo, iv, 1 h
Rattus norvegicus [5] = assay: Biodistribution was measured in rat spleen by injecting the radiolabeled compound intravenously and the value measured after 60 min; type: ADME, organism-based; conditions: in vivo, iv, 1 h
Rattus norvegicus [6] = assay: Biodistribution was measured in rat striatum by injecting the radiolabeled compound intravenously and the value measured after 2 min; type: ADME, organism-based; conditions: in vivo, iv
Rattus norvegicus [7] = assay: Biodistribution was measured in rat striatum by injecting the radiolabeled compound intravenously and the value measured after 30 min; type: ADME, organism-based; conditions: in vivo, iv, 0.5 h
Rattus norvegicus [8] = assay: Biodistribution was measured in rat striatum by injecting the radiolabeled compound intravenously and the value measured after 60 min; type: ADME, organism-based; conditions: in vivo, iv, 1 h
Rattus norvegicus [9] = assay: Biodistribution was measured in rat thyroid by injecting the radiolabeled compound intravenously and the value measured after 2 min; type: ADME, organism-based, Thyroid gland; conditions: in vivo, iv
Rattus norvegicus [10] = assay: Biodistribution was measured in rat thyroid by injecting the radiolabeled compound intravenously and the value measured after 30 min; type: ADME, organism-based, Thyroid gland; conditions: in vivo, iv, 0.5 h
Rattus norvegicus [11] = assay: Biodistribution was measured in rat thyroid by injecting the radiolabeled compound intravenously and the value measured after 60 min; type: ADME, organism-based, Thyroid gland; conditions: in vivo, iv, 1 h
Rattus norvegicus [12] = assay: Biodistribution was measured in rat skin by injecting the radiolabeled compound intravenously and the value measured after 30 min; type: ADME, organism-based, Zone of skin; conditions: in vivo, iv, 0.5 h
Rattus norvegicus [13] = assay: Biodistribution was measured in rat spleen by injecting the radiolabeled compound intravenously and the value measured after 2 min; type: ADME, organism-based; conditions: in vivo, iv
Rattus norvegicus [14] = assay: Biodistribution was measured in rat spleen by injecting the radiolabeled compound intravenously and the value measured after 30 min; type: ADME, organism-based; conditions: in vivo, iv, 0.5 h
Rattus norvegicus [15] = assay: Biodistribution was measured in rat liver by injecting the radiolabeled compound intravenously and the value measured after 30 min; type: ADME, organism-based; conditions: in vivo, iv, 0.5 h
Rattus norvegicus [16] = assay: Biodistribution was measured in rat liver by injecting the radiolabeled compound intravenously and the value measured after 60 min; type: ADME, organism-based; conditions: in vivo, iv, 1 h
Rattus norvegicus [17] = assay: Biodistribution was measured in rat lung by injecting the radiolabeled compound intravenously and the value measured after 2 min; type: ADME, organism-based; conditions: in vivo, iv
Rattus norvegicus [18] = assay: Biodistribution was measured in rat lung by injecting the radiolabeled compound intravenously and the value measured after 30 min; type: ADME, organism-based; conditions: in vivo, iv, 0.5 h
Rattus norvegicus [19] = assay: Biodistribution was measured in rat lung by injecting the radiolabeled compound intravenously and the value measured after 60 min; type: ADME, organism-based; conditions: in vivo, iv, 1 h
Rattus norvegicus [20] = assay: Biodistribution was measured in rat muscle by injecting the radiolabeled compound intravenously and the value measured after 2 min; type: ADME, organism-based, Muscle tissue; conditions: in vivo, iv
Rattus norvegicus [21] = assay: Biodistribution was measured in blood of rat by injecting the radiolabeled compound intravenously and the value measured after 60 min; type: ADME, organism-based; conditions: in vivo, iv, 1 h
[22] = Biodistribution was measured in hippocampus region(HP/CB) by injecting the radiolabeled compound intravenously and the value measured after 2 min; type: ADME, organism-based; conditions: in vivo, iv
[23] = Biodistribution was measured in hippocampus region(HP/CB) by injecting the radiolabeled compound intravenously and the value measured after 30 min; type: ADME, organism-based; conditions: in vivo, iv, 0.5 h
[24] = Biodistribution was measured in hippocampus region(HP/CB) by injecting the radiolabeled compound intravenously and the value measured after 60 min; type: ADME, organism-based; conditions: in vivo, iv, 1 h
Rattus norvegicus [25] = assay: Biodistribution was measured in rat brain by injecting the radiolabeled compound intravenously and the value measured after 2 min; type: ADME, organism-based; conditions: in vivo, iv
Rattus norvegicus [26] = assay: Biodistribution was measured in rat brain by injecting the radiolabeled compound intravenously and the value measured after 30 min; type: ADME, organism-based; conditions: in vivo, iv, 0.5 h
Rattus norvegicus [27] = assay: Biodistribution was measured in rat brain by injecting the radiolabeled compound intravenously and the value measured after 60 min; type: ADME, organism-based; conditions: in vivo, iv, 1 h
Rattus norvegicus [28] = assay: Biodistribution was measured in rat cerebellum by injecting the radiolabeled compound intravenously and the value measured after 30 min; type: ADME, organism-based; conditions: in vivo, iv, 0.5 h
Rattus norvegicus [29] = assay: Biodistribution was measured in rat cerebellum by injecting the radiolabeled compound intravenously and the value measured after 60 min; type: ADME, organism-based; conditions: in vivo, iv, 1 h
Rattus norvegicus [30] = assay: Biodistribution was measured in rat cortex by injecting the radiolabeled compound intravenously and the value measured after 2 min; type: ADME, organism-based; conditions: in vivo, iv
Rattus norvegicus [31] = assay: Biodistribution was measured in rat cortex by injecting the radiolabeled compound intravenously and the value measured after 30 min; type: ADME, organism-based; conditions: in vivo, iv, 0.5 h
Rattus norvegicus [32] = assay: Biodistribution was measured in rat cortex by injecting the radiolabeled compound intravenously and the value measured after 60 min; type: ADME, organism-based; conditions: in vivo, iv, 1 h
Rattus norvegicus [33] = assay: Biodistribution was measured in rat heart by injecting the radiolabeled compound intravenously and the value measured after 2 min; type: ADME, organism-based; conditions: in vivo, iv
Rattus norvegicus [34] = assay: Biodistribution was measured in rat heart by injecting the radiolabeled compound intravenously and the value measured after 30 min; type: ADME, organism-based; conditions: in vivo, iv, 0.5 h
Rattus norvegicus [35] = assay: Biodistribution was measured in rat heart by injecting the radiolabeled compound intravenously and the value measured after 60 min; type: ADME, organism-based; conditions: in vivo, iv, 1 h
Rattus norvegicus [36] = assay: Biodistribution was measured in rat hippocampus by injecting the radiolabeled compound intravenously and the value measured after 2 min; type: ADME, organism-based; conditions: in vivo, iv
Rattus norvegicus [37] = assay: Biodistribution was measured in rat hippocampus by injecting the radiolabeled compound intravenously and the value measured after 60 min; type: ADME, organism-based; conditions: in vivo, iv, 1 h
Rattus norvegicus [38] = assay: Biodistribution was measured in rat kidney by injecting the radiolabeled compound intravenously and the value measured after 2 min; type: ADME, organism-based; conditions: in vivo, iv
Rattus norvegicus [39] = assay: Biodistribution was measured in rat kidney by injecting the radiolabeled compound intravenously and the value measured after 30 min; type: ADME, organism-based; conditions: in vivo, iv, 0.5 h
Rattus norvegicus [40] = assay: Biodistribution was measured in rat liver by injecting the radiolabeled compound intravenously and the value measured after 2 min; type: ADME, organism-based; conditions: in vivo, iv
Rattus norvegicus [41] = assay: Biodistribution was measured in rat cerebellum by injecting the radiolabeled compound intravenously and the value measured after 2 min; type: ADME, organism-based; conditions: in vivo, iv
Rattus norvegicus [42] = assay: Biodistribution was measured in rat hippocampus by injecting the radiolabeled compound intravenously and the value measured after 30 min; type: ADME, organism-based; conditions: in vivo, iv, 0.5 h
Rattus norvegicus [43] = assay: Biodistribution was measured in rat skin by injecting the radiolabeled compound intravenously and the value measured after 60 min; type: ADME, organism-based, Zone of skin; conditions: in vivo, iv, 1 h
Rattus norvegicus [44] = assay: Biodistribution was measured in blood of rat by injecting the radiolabeled compound intravenously and the value measured after 30 min; type: ADME, organism-based; conditions: in vivo, iv, 0.5 h
Rattus norvegicus [45] = assay: Biodistribution was measured in rat kidney by injecting the radiolabeled compound intravenously and the value measured after 60 min; type: ADME, organism-based; conditions: in vivo, iv, 1 h
[46] = molecular target: T1, 5-hydroxytryptamine receptor 1A; remark: listed apart in the source
Description: as §1

Ki [1]: 51.7 nM
Compound: COc1ccc([N+](=O)[O-])cc1N1CCN(CCN2C(=O)c3cc(I)ccc3C2c2ccccc2)CC1 (centres undefined)

Ki [1]: 8.9 nM
Compound: COc1ccccc1N1CCN(CCn2c(=O)c3ccccc3c3ccccc32)CC1

Biodistribution (Rattus norvegicus [2]): 2.84 % dose organ-1 | Biodistribution (Rattus norvegicus [3]): 14.35 % dose organ-1 | Biodistribution (Rattus norvegicus [4]): 8.83 % dose organ-1 | Biodistribution (Rattus norvegicus [5]): 0.15 % dose organ-1 | Biodistribution (Rattus norvegicus [6]): 0.204 % dose organ-1 | Biodistribution (Rattus norvegicus [7]): 0.093 % dose organ-1 | Biodistribution (Rattus norvegicus [8]): 0.035 % dose organ-1 | Biodistribution (Rattus norvegicus [9]): 0.073 % dose organ-1 | Biodistribution (Rattus norvegicus [10]): 0.05 % dose organ-1 | Biodistribution (Rattus norvegicus [11]): 0.06 % dose organ-1 | Biodistribution (Rattus norvegicus [12]): 5.8 % dose organ-1 | Biodistribution (Rattus norvegicus [13]): 0.26 % dose organ-1 | Biodistribution (Rattus norvegicus [14]): 0.22 % dose organ-1 | Biodistribution (Rattus norvegicus [15]): 18.65 % dose organ-1 | Biodistribution (Rattus norvegicus [16]): 10.76 % dose organ-1 | Biodistribution (Rattus norvegicus [17]): 2.05 % dose organ-1 | Biodistribution (Rattus norvegicus [18]): 0.7 % dose organ-1 | Biodistribution (Rattus norvegicus [19]): 0.56 % dose organ-1 | Biodistribution (Rattus norvegicus [20]): 9.45 % dose organ-1 | Biodistribution (Rattus norvegicus [21]): 1.22 % dose organ-1 | Biodistribution [22]: 0.87 % dose organ-1 | Biodistribution [23]: 1.12 % dose organ-1 | Biodistribution [24]: 1.06 % dose organ-1 | Biodistribution (Rattus norvegicus [25]): 0.26 % dose organ-1 | Biodistribution (Rattus norvegicus [26]): 0.11 % dose organ-1 | Biodistribution (Rattus norvegicus [27]): 0.04 % dose organ-1 | Biodistribution (Rattus norvegicus [28]): 0.08 % dose organ-1 | Biodistribution (Rattus norvegicus [29]): 0.035 % dose organ-1 | Biodistribution (Rattus norvegicus [30]): 0.242 % dose organ-1 | Biodistribution (Rattus norvegicus [31]): 0.081 % dose organ-1 | Biodistribution (Rattus norvegicus [32]): 0.028 % dose organ-1 | Biodistribution (Rattus norvegicus [33]): 1.42 % dose organ-1 | Biodistribution (Rattus norvegicus [34]): 0.3 % dose organ-1 | Biodistribution (Rattus norvegicus [35]): 0.15 % dose organ-1 | Biodistribution (Rattus norvegicus [36]): 0.177 % dose organ-1 | Biodistribution (Rattus norvegicus [37]): 0.037 % dose organ-1 | Biodistribution (Rattus norvegicus [38]): 4.01 % dose organ-1 | Biodistribution (Rattus norvegicus [39]): 2.32 % dose organ-1 | Biodistribution (Rattus norvegicus [40]): 21.36 % dose organ-1 | Biodistribution (Rattus norvegicus [41]): 0.202 % dose organ-1 | Biodistribution (Rattus norvegicus [42]): 0.09 % dose organ-1 | Biodistribution (Rattus norvegicus [43]): 4.96 % dose organ-1 | Biodistribution (Rattus norvegicus [44]): 1.92 % dose organ-1 | Biodistribution (Rattus norvegicus [45]): 1.42 % dose organ-1 | Ki [1]: 0.069 nM | Ki [46]: 0.069 nM
Compound: COc1ccccc1N1CCN(CCN2C(=O)c3cc(I)ccc3C2c2ccccc2)CC1 (centres undefined)

Ki [1]: 1.09 nM
Compound: COc1ccccc1N1CCN(CCN2C(=O)CCC2c2ccc(Br)cc2)CC1 (centres undefined)
